{
  "source": "paper PMC7383220",
  "about": "(BioFactors (Oxford, England), 2018)",
  "key": {"BCRP [1]": {"system": "BCRP", "conditions": "read-out: Ki as BCRP inhibitor in vitro; cited from earlier work"}, "[2]": {"conditions": "orally administered; cited from earlier work"}, "UGT1A1 [3]": {"target": "T1, UGT1A1 (Homo sapiens, UniProt P22309)", "T1 sequence (P22309 26-533)": "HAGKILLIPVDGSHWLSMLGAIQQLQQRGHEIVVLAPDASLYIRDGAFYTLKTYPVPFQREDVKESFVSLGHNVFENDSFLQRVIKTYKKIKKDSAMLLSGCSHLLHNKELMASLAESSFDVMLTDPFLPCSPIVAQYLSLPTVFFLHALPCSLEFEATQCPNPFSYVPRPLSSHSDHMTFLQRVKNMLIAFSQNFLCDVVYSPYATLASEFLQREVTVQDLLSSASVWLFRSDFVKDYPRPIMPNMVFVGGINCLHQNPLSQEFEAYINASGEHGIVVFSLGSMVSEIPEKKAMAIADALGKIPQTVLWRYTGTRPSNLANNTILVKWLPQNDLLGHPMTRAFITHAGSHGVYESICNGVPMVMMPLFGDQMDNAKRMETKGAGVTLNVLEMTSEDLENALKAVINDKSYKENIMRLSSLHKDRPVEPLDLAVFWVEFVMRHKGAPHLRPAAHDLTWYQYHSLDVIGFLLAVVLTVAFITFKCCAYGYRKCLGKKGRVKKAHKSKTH", "experiment": "Glucuronidation kinetics by expressed UGT1A1", "conditions": "human, recombinant UGT1A1, pH 7.4"}, "[4]": {"conditions": "estimated from in vivo metabolism of curcumin and demethoxycurcumin; cited from earlier work"}, "UGT1A1 [5]": {"target": "T1, UGT1A1", "experiment": "Glucuronidation kinetics by HeLa1A1 cell lysate", "conditions": "human, HeLa1A1 cell lysate (HeLa cells expressing UGT1A1), pH 7.4"}, "Hela cells": {"system": "Hela cells", "experiment": "Toxicity of BDMC on Hela cells", "format": "cell-based, human", "conditions": "within experimental concentration (maximal 8 μM)"}, "aldoketo reductase 1B10": {"target": "aldoketo reductase 1B10", "conditions": "read-out: Ki against aldoketo reductase 1B10; tumor marker; cited from earlier work"}, "HeLa1A1 cell lysate": {"target": "T2, HeLa1A1 cell lysate (Homo sapiens, UniProt P22309)", "T2 sequence (P22309 26-533)": "T1 sequence (P22309 26-533)", "format": "biochemical", "conditions": "inhibitor 5 and 20 μM"}, "BCRP [6]": {"system": "BCRP", "conditions": "read-out: IC50 as BCRP inhibitor; cited from earlier work"}, "HeLa1A1 cells": {"system": "HeLa1A1 cells", "experiment": "BDMC-O-glucuronide excretion experiments in HeLa1A1 cells", "format": "cell-based, human", "conditions": "inhibitor 5 and 20 μM, 5 μM BDMC, versus control"}, "UGT1A1 [7]": {"target": "T1, UGT1A1", "format": "biochemical", "conditions": "inhibitor 5 and 20 μM"}},
  "data": [
    {"smiles": "COc1cc(/C=C/C(=O)CC(=O)/C=C/c2ccc(O)c(OC)c2)ccc1O", "note": "[curcumin]", "values": [
      {"measurement": "Ki", "setting": "BCRP [1]", "result": "700 ± 410", "unit": "nM"}
    ]},
    {"smiles": "O=C(/C=C/c1ccc(O)cc1)CC(=O)/C=C/c1ccc(O)cc1", "note": "[BDMC, Bisdemethoxycurcumin]", "values": [
      {"measurement": "Glucuronide in general blood circulation", "setting": "[2]", "result": "Approximately 50 nM"},
      {"measurement": "Glucuronide/sulfate conjugates in general blood circulation", "setting": "[2]", "result": "about 10 nM"},
      {"measurement": "microsomal CLint", "setting": "UGT1A1 [3]", "result": "235 ± 34.5", "unit": "µL/min/mg"},
      {"measurement": "Fraction of ingested compound excreted in feces without absorption", "setting": "[4]", "result": "over 75%"},
      {"measurement": "microsomal CLint", "setting": "UGT1A1 [5]", "result": "164 ± 19.8", "unit": "µL/min/mg"},
      {"measurement": "Toxicity on Hela cells", "setting": "Hela cells", "result": "no significant toxicities"},
      {"measurement": "Ki", "setting": "aldoketo reductase 1B10", "result": 22, "unit": "nM"}
    ]},
    {"smiles": "COc1ccc2c3c([nH]c2c1)[C@H](CC(C)C)N1C(=O)[C@H](CCC(=O)OC(C)(C)C)NC(=O)[C@@H]1C3", "note": "[Ko143]", "values": [
      {"measurement": "Effect on glucuronidation of BDMC by HeLa1A1 cell lysate", "setting": "HeLa1A1 cell lysate", "result": "inhibit"},
      {"measurement": "IC50", "setting": "BCRP [6]", "result": "[…]"},
      {"measurement": "Increase of intracellular levels of BDMC-O-glucuronide", "setting": "HeLa1A1 cells; cells collected at 2 h", "result": "28.8–48.1%"},
      {"measurement": "Decrease of BDMC-O-glucuronide excretion", "setting": "HeLa1A1 cells", "result": "18.4–55.6%"},
      {"measurement": "Effect on glucuronidation of BDMC by UGT1A1 enzyme", "setting": "UGT1A1 [7]", "result": "inhibit"}
    ]}
  ]
}
